Source: publication PMC3865801 (Journal of Medicinal Chemistry, 2013)
“Also recorded” adds a separate entry of the source. Where two headings read alike, the source gives them in different places.

Columns and labels:
[1] = biological target: T1, recombinant purified mouse perforin (Mus musculus, UniProt P10820); assay: Inhibitor binding to immobilized perforin by SPR (Biacore T200); conditions: for Kd: single site specific binding model, read-out: calculated KD; for binding to immobilized perforin by SPR: analyte ≤2.5 μM, 5% DMSO running buffer
T1 sequence (P10820 21-554): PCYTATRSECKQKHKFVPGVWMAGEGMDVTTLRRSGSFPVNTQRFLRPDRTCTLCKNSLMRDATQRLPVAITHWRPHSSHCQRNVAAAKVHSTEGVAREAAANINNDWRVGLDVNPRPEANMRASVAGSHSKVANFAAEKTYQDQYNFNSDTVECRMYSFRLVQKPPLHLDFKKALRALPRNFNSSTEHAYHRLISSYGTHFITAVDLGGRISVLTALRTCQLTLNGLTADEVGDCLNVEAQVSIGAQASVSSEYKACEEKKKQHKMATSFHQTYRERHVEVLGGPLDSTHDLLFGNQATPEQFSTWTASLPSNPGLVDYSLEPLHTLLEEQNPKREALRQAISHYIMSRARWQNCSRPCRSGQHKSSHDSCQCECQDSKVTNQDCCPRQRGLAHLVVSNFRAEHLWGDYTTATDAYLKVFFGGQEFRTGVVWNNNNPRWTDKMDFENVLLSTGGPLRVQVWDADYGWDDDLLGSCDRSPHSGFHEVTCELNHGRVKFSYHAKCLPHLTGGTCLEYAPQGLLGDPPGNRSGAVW
From the text: While several series of potent inhibitors have now been identified,[23]−[26] little is known about the mechanism by which the cytolytic activity of perforin action is blocked. In order to find out more about the nature and degree of inhibitor binding, recombinant purified mouse perforin was immobilized on a surface plasmon resonance (SPR) S-series CM5 sensor chip using standard amide coupling methodology.
Binding experiments with surface immobilized wild-type perforin monomers on a S-series CM5 sensor chip (GE Healthcare Life Sciences) were carried out using a Biacore T200 SPR machine (GE Healthcare Life Sciences). Perforin monomer solution (25 μg/mL in 10 mM sodium acetate, pH 5.5) was injected over the sensor chip surface under standard amide coupling conditions to obtain covalent binding of the protein (density = 4257 RU). The initial and running buffers were made from a 10× stock solution of HEPES buffered saline (HBS). 10× HBS (50 mL) was diluted to 500 mL with water and filtered through a 0.22 μm filter (initial buffer). This initial buffer (380 mL) was added to DMSO (20 mL) to prepare the 5% DMSO running buffer. Stock solutions (2.5 mM) of compound were prepared in 100% DMSO. These solutions were diluted in HEPES initial buffer to 5% DMSO (125 μM) and then subsequently diluted to the required concentrations using HEPES running buffer containing 5% DMSO to maintain a constant DMSO concentration. A solvent correction was run before and after the injections to account for differences in DMSO concentrations between buffer and analyte solutions.

[2] = Toxicity to KHYG-1 NK cells (Trypan blue exclusion); type: cell-based, human; conditions: human, viability after 24 h; for viability at 4 h, 20 µM: 4 h exposure, Trypan blue, ± SEM
Experimental: The toxicity assay was carried out in exactly the same manner as the killing assay above, but instead of adding the labeled K562 target cells, 100 μL of RPMI 0.1% BSA was added. Cells were incubated for 4 h at 37 °C and then washed ×3 in RPMI + 0.1% BSA. […] Trypan blue was added to each well. Viable (clear) cells and total (clear + blue) cells were counted, and the percentage of viable cells was calculated compared to DMSO treated cell control (% viability).

[3] = biological target: T2, purified recombinant perforin (Mus musculus, UniProt P10820); assay: cell-based; type: cell-based; conditions: lysis of Jurkat cells by purified recombinant perforin, 51Cr release, 0.1% BSA; average of at least three determinations; read-out: inhibition of Jurkat cell lysis, IC50
T2 sequence (P10820 21-554): T1 sequence (P10820 21-554)
Experimental: The ability of the compounds to inhibit the lysis of nucleated (Jurkat T lymphoma) cells in the presence of 0.1% BSA was measured by release of ^51Cr label. Jurkat target cells were labeled by incubation in medium with 100 μCi ^51Cr for 1 h. The cells were then washed three times to remove unincorporated isotope and resuspended at 1 × 10^5 cells per milliliter in RPMI buffer supplemented with 0.1% BSA. […] Each data point was performed in triplicate, and an IC50 was calculated from the range of concentrations described above.

[4] = biological target: T3, perforin produced by an intact NK cell line (KHYG-1) (Homo sapiens, UniProt P14222); assay: KHYG-1 cytotoxicity assay: perforin-induced lysis of K562 target cells co-incubated with KHYG-1 NK cells; type: cell-based; conditions: for inhibition at 5 µM: KHYG-1
T3 construct: the perforin is delivered by a functional NK cell; endogenous in cells; host or cells: KHYG-1 NK cells (K562 target cells)
T3 sequence (P14222 22-555): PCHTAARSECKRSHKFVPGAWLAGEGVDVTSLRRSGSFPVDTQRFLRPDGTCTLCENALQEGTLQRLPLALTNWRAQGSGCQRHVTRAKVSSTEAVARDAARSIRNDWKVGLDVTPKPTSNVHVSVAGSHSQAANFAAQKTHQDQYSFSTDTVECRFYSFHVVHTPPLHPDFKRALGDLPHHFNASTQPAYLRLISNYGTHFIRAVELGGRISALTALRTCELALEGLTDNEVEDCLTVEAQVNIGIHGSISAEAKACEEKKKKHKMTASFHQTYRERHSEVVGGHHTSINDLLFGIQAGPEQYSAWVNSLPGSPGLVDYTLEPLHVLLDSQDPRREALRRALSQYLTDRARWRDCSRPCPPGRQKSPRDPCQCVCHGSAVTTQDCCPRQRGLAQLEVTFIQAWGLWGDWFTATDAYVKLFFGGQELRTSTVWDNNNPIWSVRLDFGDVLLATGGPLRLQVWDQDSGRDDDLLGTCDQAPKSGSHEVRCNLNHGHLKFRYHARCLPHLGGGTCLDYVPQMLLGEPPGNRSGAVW
Experimental: KHYG-1 cells were washed and resuspended in RPMI + 0.1% BSA at 4 × 10^5 cells/mL, and an amount of 50 μL of KHYG-1 cells was dispensed to each well of a 96-well V-bottom plate. RPMI (50 μL) + 0.1% BSA or 10% (final concentration) of serum was added to each well. Then test compounds were added to KHYG-1 cells at various concentrations up to 20 μM and incubated at room temperature for 20 min. 1 × 10^6 K562 target cells were labeled with 75 μCi ^51Cr in 200 μL of RPMI for 90 min at 37 °C. Cells were washed as described above and resuspended in 5 mL of RPMI + 0.1% BSA. […] The percentage of specific cytotoxicity was calculated using the following formula: [drawing 4] and expressed as the mean of triplicate assays ± standard error of the mean.

[5] = SI Figure 2: 0, 0.25, 1.25 and 2.5 µM
[6] = SI Figure 3: further dilution series 0–2.5 µM

| SMILES | calculated Rmax [1, 5] | Kd [1, 5] | calculated Rmax [1, 6] | Kd [1, 6] | binding to immobilized perforin by SPR [1] | viability at 4 h, 20 µM ([2]; KHYG-1 NK cells) | IC50 [3] | inhibition at 20 µM ([4]; 20 μM, 10% mouse serum, K562 targets, ± SEM, read-out: KHYG-1 inhibition (% at 20 μM), 10% serum) | inhibition at 20 µM ([4]; 20 μM, no serum, K562 targets, vs untreated control, ± SEM, read-out: KHYG-1 inhibition (% at 20 μM), no serum) | viability at 4 h, 5 µM ([2]; KHYG-1 NK cells, 5 μM) | viability at 4 h, 20 µM [2] | inhibition at 5 µM ([4]; 10% mouse serum, read-out: KHYG-1 inhibition, 10% serum) | inhibition at 5 µM ([4]; no serum, read-out: KHYG-1 inhibition, no serum) | inhibition at 20 µM ([4]; read-out: KHYG-1 inhibition (% at 20 μM), 10% serum) | inhibition at 20 µM ([4]; read-out: KHYG-1 inhibition (% at 20 μM), no serum) |
| --- | --- | --- | --- | --- | --- | --- | --- | --- | --- | --- | --- | --- | --- | --- | --- |
| CC1c2cc(-c3ccc(/C=C4/NC(=S)NC4=O)s3)ccc2C(=O)N1C (centres unmarked) [compound 135, (E,Z)-2,3-Dimethyl-5-(5-((5-oxo-2-thioxoimidazolidin-4-ylidene)methyl)thiophen-2-yl)isoindolin-1-one] | 1.23 ± 0.10 RU | 1790 ± 550 nM | 8.66 ± 2.81 RU | 2390 ± 1230 nM | saturable binding; also recorded: bind reversibly | 74 ± 8.3% | 3210 nM | 67 ± 6.1% | 90 ± 4% |  |  |  |  |  |  |
| O=C1NC(=S)N/C1=C/c1ccc(-c2ccc3c(c2)CCNC3=O)s1 [compound 167] |  |  |  |  | linear concentration response; also recorded: bind reversibly |  | 1140 nM |  |  | 82 ± 3.6% | 38 ± 7.8% | 34 ± 6.4% | 51 ± 4.2% | 81 ± 5.3% | 83 ± 4.6% |
